“Also recorded” adds a separate entry of the source. Peptide text beside a SMILES is read from it. * marks the point of attachment. X1 = CN(C)c1ccc2c(c1)Oc1cc(N(C)C)ccc1C21OC(=O)c2cc(N3C(=O)CC(*)C3=O)ccc21
How the values were obtained:
[1] = molecular target: T1, full-length RIα (Bos taurus, UniProt P00514); assay: Fluorescence anisotropy binding assay (Example 9); set-up: species or system bovine; conditions: compared with the unsubstituted peptide
T1 construct: Full-length bovine RIα was expressed in E. coli 222; made in house; host or cells: E. coli 222
Method: (§1) Each peptide was fluorescently labeled using a 25 mM solution of tetramethylrhodamine-5-maleimide (catalog number T-6027; Molecular Probes, Eugene, Oreg.) dissolved in DMSO. The peptides were labeled by incubating with a three-fold molar excess of the label for 16 hr at 4° C. in 20 mM Tris, pH 7.0 and 1 mM tris-(2-carboxyethyl) phosphine, hydrochloride (TCEP) (non-thiol reducing agent, Molecular Probes). The sample was quenched with 1 mM, β-mercaptoethanol to bind to any unreacted maleimide and diluted with 0.1% TFA for purification by HPLC. The labeled peptides were resolved using a C18 column with a water/acetonitrile gradient containing 0.1% TFA. The concentration of each peptide was determined by absorbance at 541 nm after diluting into 100% methanol and using an extinction coefficient of 91,000 M^−1 cm^−1 for absorbance of the rhodamine label at 541 nm (Molecular Probes Catalog). The peptides were stored at 4° C. in 50% acetonitrile.
(§2) Full-length murine RIIα was expressed in E. coli BL21 (DE3). Full-length bovine RIα was expressed in E. coli 222. The proteins were purified as previously described using a cAMP affinity resin (Hamuro et al. (2002) J. Mol. Biol., 321:703). The protein concentrations were determined using the following extinction coefficients at 280 nm, which were calculated using a standard concentration of protein calibrated using quantitative amino acid analysis: RIα 52,603 M^−1 cm^−1 and RIIα 62,456 M^−1 cm^−1. The proteins were stored at 4° C. in 50 mM MES pH 5.8, 50 mM NaCl, 2 mM EDTA, 2 mM EGTA, 2 mM DTT.
(§3) Binding of each fluorescently labeled peptide to the regulatory subunits was monitored using fluorescence anisotropy. RIα and RIIα were serially diluted beginning at 1 μM and 0.1 μM, respectively, into 10 mM HEPES pH 7.4, 0.15 M NaCl, 3 mM EDTA, 0.005% Surfactant P20 (Biacore) containing either 10 nM or 1 nM of fluorescently labeled peptide for RIα and RIIα, respectively. The samples were equilibrated for at least 1 hour at room temperature and fluorescence anisotropy monitored using a Fluoromax-2 (Jobin Yvon Horiba, SPEX Division, Edison, N.J.) equipped with Glan-Thompson polarizers. The rhodamine-labeled peptide was excited at 541 nm (5-10 nm bandpass) and emission monitored at 575 nm (5-10 nm bandpass). The anisotropy was calculated directly with the Fluoromax software using the following equation: r=(IVV−G*IVH)/(IVV+2G*IVH) (1) where r is the steady state anisotropy, IVV is the fluorescence intensity with the excitation and emission polarizers oriented in the vertical position (0° from normal), IVH is the fluorescence intensity with the excitation polarizer in the vertical position and the emission polarizer oriented in the horizontal position (90°) relative to the excitation polarizer, G is the monochromator grating factor which is equal to (IHV/IHH), with the first subscript indicating the position of the excitation polarizer and the second subscript indicating position of the emission polarizer. Three separate binding experiments were averaged and fit to a 1:1 binding model using the non-linear regression application in GraphPad Prism version 3.00 (GraphPad Software, San Diego, Calif.).

[2] = molecular target: T2, full-length RIIα (Mus musculus, UniProt P12367); assay: Fluorescence anisotropy binding assay (Example 9); set-up: species or system murine; conditions: compared with the unsubstituted peptide
T2 construct: Full-length murine RIIα was expressed in E. coli BL21 (DE3); made in house; host or cells: E. coli BL21 (DE3)
Method: as §1, §2, §3

[3] = molecular target: T3, GFP-RIα (Bos taurus, UniProt P00514); assay: Co-localization with mitochondria-targeted Flag-tagged AKB domain constructs in 10T(1/2) cells (Example 10); format: cell-based, bovine; conditions: mutations of Table 7 in AKB domain of C-terminal 156 residues of mouse D-AKAP2, mitochondria-targeted
T3 construct: Full-length bovine RIα and mouse RIIα were fused with green fluorescent protein (GFP) by subcloning into pEGFPN1; expressed in transfected cells; host or cells: 10T(1/2) cells
Method: (§4) To test the ability of the mutations set forth in Table 7 [AKB(dual), AKB(RI), AKB(RII) and AKB(null)] to co-localize with selected PKA isoforms in cells, a flag-tagged AKB domain construct targeted to the mitochondria was prepared using the AKB domain and a mitochondria targeting sequence from D-AKAP1 as set forth in Example 3. The respective mutations were then incorporated into the AKB domain of D-AKAP2 to test for selectivity in the cell. The targeting constructs of the AKB domain were made by fusing the C-terminal 156 residues of mouse D-AKAP2 with the N-terminal mitochondrial-targeting domain of D-AKAP1 (residues 1-30 of D-AKAP1a). After adding a flag tag to the C-terminus, the constructs were sub-cloned into the pCI vector (Promega, Madison, Wis.). The mutations of the AKB domain corresponding to those set forth in Table 7 herein were made with the QuickChange mutagenesis method (Makarova et al. (2000) Biotechniques, 29:970-972). Full-length bovine RIα and mouse RIIα were fused with green fluorescent protein (GFP) by subcloning into pEGFPN1 (Clontech, Palo Alto, Calif.). Equal amounts of the targeting constructs and either GFP-RIα or GFP-RIIα constructs were co-transfected into 10T(1/2) cells using Lipofectamin (Invitrogen, Carlsbad, Calif.). The AKB domain was detected by immuno-staining with monoclonal antibodies against the Flag-tag (Kodak, Rochester, N.Y.) followed by a rhodamine-conjugated secondary antibody (Jackson Lab, Bar Harbor, Me.). The cells were imaged using a radiance confocal microscope (BioRad, Hercules, Calif.).

[4] = molecular target: T4, GFP-RIIα (Mus musculus, UniProt P12367); assay: as above; format: cell-based; conditions: mutations of Table 7 in AKB domain of C-terminal 156 residues of mouse D-AKAP2, mitochondria-targeted
T4 construct: Full-length bovine RIα and mouse RIIα were fused with green fluorescent protein (GFP) by subcloning into pEGFPN1; expressed in transfected cells; host or cells: 10T(1/2) cells
Method: as §4

T3 sequence (P00514 whole entry, the tested form may be a part): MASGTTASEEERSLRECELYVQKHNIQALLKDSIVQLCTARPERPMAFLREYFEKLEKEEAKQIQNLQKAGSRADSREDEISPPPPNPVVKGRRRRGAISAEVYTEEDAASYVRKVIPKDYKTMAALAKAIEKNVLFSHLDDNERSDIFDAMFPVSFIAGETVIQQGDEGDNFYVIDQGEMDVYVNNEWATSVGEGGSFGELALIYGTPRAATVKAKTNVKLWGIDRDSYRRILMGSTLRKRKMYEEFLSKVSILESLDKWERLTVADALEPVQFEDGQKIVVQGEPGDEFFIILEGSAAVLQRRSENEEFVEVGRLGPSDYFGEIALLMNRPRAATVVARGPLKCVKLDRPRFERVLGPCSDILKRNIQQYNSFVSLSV
T1 sequence (P00514 whole entry): as the sequence (P00514 whole entry, the tested form may be a part) above
T2 sequence (P12367 whole entry): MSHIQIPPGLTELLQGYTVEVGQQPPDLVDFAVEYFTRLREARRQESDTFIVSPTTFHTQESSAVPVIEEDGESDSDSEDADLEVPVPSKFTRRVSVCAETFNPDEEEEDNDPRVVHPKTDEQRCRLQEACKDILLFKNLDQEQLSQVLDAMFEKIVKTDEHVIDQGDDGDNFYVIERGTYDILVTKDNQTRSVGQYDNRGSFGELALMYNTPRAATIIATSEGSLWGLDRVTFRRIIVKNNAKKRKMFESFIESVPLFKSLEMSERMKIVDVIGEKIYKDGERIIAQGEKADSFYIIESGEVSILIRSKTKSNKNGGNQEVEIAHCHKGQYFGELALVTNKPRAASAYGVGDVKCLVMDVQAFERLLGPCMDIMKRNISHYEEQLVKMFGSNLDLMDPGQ
T4 sequence (P12367 whole entry, the tested form may be a part): as the sequence (P12367 whole entry) above

SMILES	binding to RIα, in words [1]	binding to RIIα, in words [2]	recruitment of GFP-RIα to the mitochondria [3]	recruitment of GFP-RIIα to the mitochondria [4]	binding to RIα, in words ([1]; listed as SEQ ID NO:103)	binding to RIIα, in words ([2]; listed as SEQ ID NO:103)
CC[C@H](C)[C@H](NC(=O)[C@H](CCCCN)NC(=O)[C@H](Cc1c[nH]c2ccccc12)NC(=O)[C@H](CC(C)C)NC(=O)[C@H](CC(C)C)NC(=O)[C@H](CCC(=O)O)NC(=O)[C@H](CCC(=O)O)NC(=O)[C@H](CCC(N)=O)NC(=O)[C@H](C)NC(=O)[C@H](CCC(=O)O)NC(=O)[C@H](CC(=O)O)NC(=O)[C@@H](NC(=O)[C@H](CC(N)=O)NC(=O)CNC(=O)[C@H](CCC(N)=O)NC(=O)[C@@H](N)C(C)C)[C@@H](C)O)C(=O)N[C@@H](C)C(=O)N[C@@H](CCCCN)C(=O)N[C@@H](CCSC)C(=O)N[C@H](C(=O)N[C@H](C(=O)N[C@@H](CO)C(=O)N[C@@H](CC(=O)O)C(=O)N[C@H](C(=O)N[C@@H](CCSC)C(=O)N[C@@H](CCC(N)=O)C(=O)N[C@@H](CCC(N)=O)C(=O)N[C@@H](CSC1CC(=O)N(c2ccc3c(c2)C(=O)OC32c3ccc(N(C)C)cc3Oc3cc(N(C)C)ccc32)C1=O)C(N)=O)C(C)C)C(C)C)[C@@H](C)CC (stereo partly shown) [AKB (RII)] (H-VQGNTDEAQEELLWKIAKMIVSDVMQQC(X1)-NH2; N-terminus assumed)	dramatically affected binding to RIα	did not affect binding to RIIα	incapable of recruiting GFP-RI	recruited RII to the mitochondria	–	–
CC[C@H](C)[C@H](NC(=O)[C@H](CCCCN)NC(=O)[C@H](Cc1c[nH]c2ccccc12)NC(=O)[C@H](C)NC(=O)[C@H](CC(C)C)NC(=O)[C@H](CCC(=O)O)NC(=O)[C@H](CCC(=O)O)NC(=O)[C@H](CCC(N)=O)NC(=O)[C@H](C)NC(=O)[C@H](CCC(=O)O)NC(=O)[C@H](CC(=O)O)NC(=O)[C@@H](NC(=O)[C@H](CC(N)=O)NC(=O)CNC(=O)[C@H](CCC(N)=O)NC(=O)[C@@H](N)C(C)C)[C@@H](C)O)C(=O)N[C@@H](C)C(=O)N[C@@H](CCCCN)C(=O)N[C@@H](CCSC)C(=O)N[C@H](C(=O)N[C@H](C(=O)N[C@@H](CO)C(=O)N[C@@H](CC(=O)O)C(=O)N[C@H](C(=O)N[C@@H](CCSC)C(=O)N[C@@H](CCC(N)=O)C(=O)N[C@@H](CCC(N)=O)C(=O)N[C@@H](CSC1CC(=O)N(c2ccc3c(c2)C(=O)OC32c3ccc(N(C)C)cc3Oc3cc(N(C)C)ccc32)C1=O)C(N)=O)C(C)C)C(C)C)[C@@H](C)CC (stereo partly shown) [AKB (dual)] (H-VQGNTDEAQEELAWKIAKMIVSDVMQQC(X1)-NH2; N-terminus assumed)	–	–	able to recruit both GFP-RIα and GFP-RIIα to the mitochondria	able to recruit both GFP-RIα and GFP-RIIα to the mitochondria	–	–
CC[C@H](C)[C@H](NC(=O)[C@H](CCCCN)NC(=O)[C@H](Cc1c[nH]c2ccccc12)NC(=O)[C@H](C)NC(=O)[C@H](CC(C)C)NC(=O)[C@H](CCC(=O)O)NC(=O)[C@H](CCC(=O)O)NC(=O)[C@H](CCC(N)=O)NC(=O)[C@H](C)NC(=O)[C@H](CCC(=O)O)NC(=O)[C@H](CC(=O)O)NC(=O)[C@@H](NC(=O)[C@H](CC(N)=O)NC(=O)CNC(=O)[C@H](CCC(N)=O)NC(=O)[C@@H](N)C(C)C)[C@@H](C)O)C(=O)N[C@@H](CCC(=O)O)C(=O)N[C@@H](CCCCN)C(=O)N[C@@H](CCSC)C(=O)N[C@H](C(=O)N[C@@H](Cc1c[nH]c2ccccc12)C(=O)N[C@@H](CO)C(=O)N[C@@H](CC(=O)O)C(=O)N[C@H](C(=O)N[C@@H](CCSC)C(=O)N[C@@H](CCC(N)=O)C(=O)N[C@@H](CCC(N)=O)C(=O)N[C@@H](CSC1CC(=O)N(c2ccc3c(c2)C(=O)OC32c3ccc(N(C)C)cc3Oc3cc(N(C)C)ccc32)C1=O)C(N)=O)C(C)C)[C@@H](C)CC (stereo partly shown) [AKB (null)] (H-VQGNTDEAQEELAWKIEKMIWSDVMQQC(X1)-NH2; N-terminus assumed)	bound very poorly	could not be detected	could not co-localize either GFP-RIα or RIIα	could not co-localize either GFP-RIα or RIIα	–	–
CC[C@H](C)[C@H](NC(=O)[C@H](CCCCN)NC(=O)[C@H](Cc1c[nH]c2ccccc12)NC(=O)[C@H](C)NC(=O)[C@H](CC(C)C)NC(=O)[C@H](CCC(=O)O)NC(=O)[C@H](CCC(=O)O)NC(=O)[C@@H](N)Cc1ccccc1)C(=O)N[C@@H](C)C(=O)N[C@@H](CCCCN)C(=O)N[C@@H](CCSC)C(=O)N[C@H](C(=O)N[C@@H](Cc1c[nH]c2ccccc12)C(=O)N[C@@H](CO)C(=O)N[C@@H](CC(=O)O)C(=O)N[C@H](C(=O)N[C@@H](Cc1ccccc1)C(=O)N[C@@H](CCC(N)=O)C(=O)N[C@@H](CCC(N)=O)C(=O)N[C@@H](CSC1CC(=O)N(c2ccc3c(c2)C(=O)OC32c3ccc(N(C)C)cc3Oc3cc(N(C)C)ccc32)C1=O)C(N)=O)C(C)C)[C@@H](C)CC (stereo partly shown) [PV-38] (H-FEELAWKIAKMIWSDVFQQC(X1)-NH2; N-terminus assumed)	dramatically enhanced binding to RIα	substantially no binding; also recorded: further disrupting RIIα binding	only localized GFP-RI to the mitochondria	GFP-RII was not localized	enhanced binding to RIα by a factor of ten	considerable reduction in affinity to RIIα
